Experimental data from ChEMBL document CHEMBL5604061, “ASAP - WNV NS2B-NS3 protease fluorescence dose response” (2024).

Molecular target: T1, NS3 (West Nile virus, UniProt K4FQI5)
T1 sequence (K4FQI5 whole entry): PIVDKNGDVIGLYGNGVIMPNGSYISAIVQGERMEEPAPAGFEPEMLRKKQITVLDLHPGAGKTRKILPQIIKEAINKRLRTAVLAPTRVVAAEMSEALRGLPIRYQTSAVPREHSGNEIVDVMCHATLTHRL
Assay: Functional biochemical assay to identify treatments for viral infectious disease that targets West Nile NS2B-NS3 protease. Utilizing a direct enzyme activity measurement method, reading the fluorescence intensity is used to characterize the relative potency of inhibitors as IC50.
Parameters: species or system NY-99

Compound | IC50
COc1ccc(S(=O)(=O)n2nc(OC(=O)c3cccc(-c4ccccc4Cl)c3)cc2N)cc1 | 1.09 µM
COc1cc(Br)cc(C(=O)Nc2ccc3c(c2)CNC3)c1 | 92.7 µM
O=C(Nc1ccc2c(c1)CNC2)c1cc(Cl)cc(-n2cccc2)c1 | 12.9 µM
Cc1cc(CN)cc(NC(=O)c2cc(Cl)cc3[nH]ncc23)c1 | 22.6 µM
O=C(Nc1ccc2c(c1)CNC2)c1cc(Cl)cc(C2CC2)c1 | 25.5 µM
Nc1cc(Cl)cc(C(=O)Nc2ccc3c(c2)CNC3)c1N | 33.3 µM
O=C(Nc1ccc2c(c1)CNCCC2)c1cc(Cl)cc2[nH]ncc12 | 3.25 µM
O=C(Nc1ccc2c(c1)CNC2)c1cc(F)cc2[nH]nnc12 | 5.06 µM
O=C(Nc1ccc2c(c1)CNC2)c1cccc2[nH]ncc12 | 4.33 µM
CNC(=O)[C@H](Nc1ccc2c(c1)CNC2)c1cc(Cl)cc2[nH]ncc12 | 0.677 µM
O=C(Nc1ccc2c(c1)CNC2)c1cc(Br)cc2c1OCO2 | > 99.5 µM
NCCc1cccc(NC(=O)c2cc(Cl)cc3[nH]ncc23)c1 | 94.5 µM
O=C(Nc1ccc2c(c1)CCNCC2)c1cc(Cl)cc2[nH]ncc12 | 48.5 µM
O=C(Nc1ccc2c(c1)CNCCO2)c1cc(Cl)cc2[nH]ncc12 | 19.6 µM
O=C(Nc1ccc2c(c1)CNC2)c1cc(Br)cc2[nH]ncc12 | 12.9 µM
O=C(Nc1ccc2c(n1)CNC2)c1cc(Cl)cc2[nH]ncc12 | 35.2 µM
COC(=O)CNC(=O)[C@H](Nc1ccc2c(c1)CNC2)c1cc(Cl)cc(C2CC2)c1 | 0.897 µM
CC(=O)Nc1cc(Br)cc(C(=O)Nc2ccc3c(c2)CNC3)c1 | 31.5 µM
Cn1ncc2c(C(=O)Nc3ccc4c(c3)CNC4)cc(Br)cc21 | 47.2 µM
CCc1nc2c(C(=O)Nc3ccc4c(c3)CNC4)cc(Br)cc2[nH]1 | 55.9 µM
O=C(NCc1ccc(F)cc1)[C@H](Nc1ccc2c(c1)CNC2)c1cc(Cl)cc2[nH]ncc12 | 1.08 µM
N[C@H]1Cc2ccc(NC(=O)c3cc(Cl)cc4[nH]ncc34)cc2C1 | 51.6 µM
N#Cc1cc(C(=O)Nc2ccc3c(c2)CNC3)cc(C(F)(F)F)c1 | 98.1 µM
CC(C)c1nc2c(C(=O)Nc3ccc4c(c3)CNC4)cc(Br)cc2[nH]1 | > 99.5 µM
Cc1ncc(-c2cc(F)cc(C(=O)Nc3ccc4c(c3)CNC4)c2)o1 | 6.67 µM
O=C(O)c1ccc(-c2cc(NC(=O)c3cc(F)cc4[nH]ncc34)cc3c2CNC3)cc1 | 1.15 µM

Compound | IC50
O=C(Nc1ccc2c(c1)CNC2)c1cc(F)cc(C=C2CCS(=O)(=O)CC2)c1 | 14.5 µM
CO[C@H]1C[C@H](n2cc3c(C(=O)Nc4ccc5c(c4)CNC5)cc(Cl)cc3n2)C1 | 13.9 µM
O=C(Nc1ccc2c(c1)CNC2)c1cc(F)cc(-c2cn[nH]c2)c1 | 0.691 µM
N#Cc1cccc(-c2nc3c(C(=O)Nc4ccc5c(c4)CNC5)cc(F)cc3[nH]2)c1 | 3.76 µM
O=C(Nc1cc2c(c(-c3c[nH]c(=O)c(F)c3)c1)CNC2)c1cc(F)cc2[nH]ncc12 | 0.668 µM
COC[C@]1(c2nc3c(C(=O)Nc4ccc5c(c4)CNC5)cc(F)cc3[nH]2)CCOC1 | 20.5 µM
N#Cc1c[nH]c2ccc(C(=O)Nc3ccc4c(c3)CNC4)cc12 | 9.06 µM
O=C(Nc1ccc2c(c1)CNC2)c1cc(F)cc(C2=CCCOC2)c1 | 9.61 µM
CNC(=O)[C@H](Nc1ccc2c(c1)CNC2)c1cc(Cl)cc2[nH]c(-c3ccccc3)nc12 | 0.281 µM
CC(C)Cn1cc2c(C(=O)Nc3ccc4c(c3)CNC4)cc(Cl)cc2n1 | 14.7 µM
O=C(Nc1ccc2c(c1)CNC2)c1cc(Cl)cc2nn(C3CCOCC3)cc12 | 14 µM
O=C(NCCCF)[C@H](Nc1ccc2c(c1)CNC2)c1cc(Cl)cc(C2CC2)c1 | 0.249 µM
COC(=O)[C@H](C)n1cc2c(C(=O)Nc3ccc4c(c3)CNC4)cc(Cl)cc2n1 | 9.12 µM
O=C(Nc1ccc2c(c1)CNC2)c1cc(F)cc(-c2ccc3c(=O)[nH]ncc3c2)c1 | 5.15 µM
COCn1ncc2c(C(=O)Nc3ccc4c(c3)CNC4)cc(Cl)cc21 | 3.73 µM
COc1cccc(-c2nc3c(C(=O)Nc4ccc5c(c4)CNC5)cc(F)cc3[nH]2)c1 | 6.6 µM
CO[C@H]1C[C@H](n2ncc3c(C(=O)Nc4ccc5c(c4)CNC5)cc(Cl)cc32)C1 | 2.55 µM
CC(C)c1nn(C)cc1-c1cc(F)cc(C(=O)Nc2ccc3c(c2)CNC3)c1 | 11.9 µM
NCCc1cc(Cl)cc(C(=O)Nc2cccc(CN)c2)c1 | 5.52 µM
COc1cc(C(=O)Nc2ccc3c(c2)CNC3)cc2ccoc12 | 48.9 µM
CN(C)c1nc(-c2cc(F)cc(C(=O)Nc3ccc4c(c3)CNC4)c2)cs1 | 12.6 µM
O=C(Nc1ccc2c(c1)CNC2)c1cc(Cl)cc2nn(C3COC3)cc12 | 42.5 µM
CCCn1cc2c(C(=O)Nc3ccc4c(c3)CNC4)cc(Cl)cc2n1 | 1.97 µM
COc1ccc(-c2nc3c(C(=O)Nc4ccc5c(c4)CNC5)cc(F)cc3[nH]2)nn1 | 3.68 µM
CCNC(=O)Nc1cc(Cl)cc(C(=O)Nc2cc(C)cc(CN)c2)c1 | 19.8 µM
O=C(NCCOCC1CC1)[C@H](Nc1ccc2c(c1)CNC2)c1cc(Cl)cc(C2CC2)c1 | 0.366 µM

Compound | IC50
O=C1CCc2c(cccc2C(=O)Nc2ccc3c(c2)CNC3)N1 | 10.8 µM
CCCCNC(=O)[C@H](Nc1ccc2c(c1)CNC2)c1cc(Cl)cc(C2CC2)c1 | 0.295 µM
N#Cc1cc2c(cc1NC(=O)c1cc(F)cc3[nH]ncc13)CNC2 | 0.242 µM
O=C(Nc1ccc2c(c1)CNC2)c1cc(F)cc(-c2cccnc2)c1 | 2.68 µM
O=C(NCC(F)F)[C@H](Nc1ccc2c(c1)CNC2)c1cc(Br)cc2[nH]ccc12 | 0.556 µM
Cc1cccc(-c2nc3c(C(=O)Nc4ccc5c(c4)CNC5)cc(F)cc3[nH]2)c1 | 26 µM
O=C(Nc1ccc2c(c1)CNC2)c1cccc2c1[C@]1(CCNC1)C(=O)N2 | 1.62 µM
Cc1ncc(-c2cc(F)cc(C(=O)Nc3ccc4c(c3)CNC4)c2)s1 | 2.28 µM
CO[C@H](C)Cn1cc2c(C(=O)Nc3ccc4c(c3)CNC4)cc(Cl)cc2n1 | 19.8 µM
CC(C)NC(=O)[C@H](Nc1ccc2c(c1)CN(C)C2)c1cc(Cl)cc2[nH]ncc12 | 1.67 µM
O=C(Nc1ccc2c(c1)CNC2)c1cc(F)cc(-c2c[nH]c(=O)c(F)c2)c1 | 0.665 µM
C=Cc1cc2c(cc1NC(=O)c1cc(F)cc3[nH]ncc13)CNC2 | 0.489 µM
O=C(Nc1ccc2c(c1)CNC2)c1cc(F)cc2[nH]c(-c3ccccc3F)nc12 | 2.39 µM
O=C(Nc1cc2c(cc1C1CC1)CNC2)c1cc(F)cc2[nH]ncc12 | 0.832 µM
CCNC(=O)Nc1cc(Cl)cc(C(=O)Nc2cccc(CN)c2)c1 | 21.6 µM
O=C(Nc1ccc2c(c1)CNC2)c1cc(Cl)cc2c1cnn2C[C@H]1CCCO1 | 6.08 µM
O=C(Nc1ccc2c(c1)CNC2)c1cc(F)cc(/C=C/c2ccccc2)c1 | 2.91 µM
O=C(Nc1ccc2c(c1)CN[C@H]2[C@H](O)CO)c1cc(F)cc2[nH]ncc12 | 6.73 µM
C[C@]1(O)C(=O)Nc2cc(F)cc(C(=O)Nc3ccc4c(c3)CNC4)c21 | 5.58 µM
NCc1cccc(NC(=O)c2cc(Cl)cc3[nH]ncc23)c1 | 35.8 µM
Cn1ncc2c(C(=O)Nc3ccc4c(c3)CNC4)cc(Cl)cc21 | 1.88 µM
O=C(Nc1ccc2c(c1)CN[C@H]2CCO)c1cc(F)cc2[nH]ncc12 | 1.66 µM
CCc1cccc(-c2nc3c(C(=O)Nc4ccc5c(c4)CNC5)cc(F)cc3[nH]2)c1 | 18.9 µM
Cc1cnccc1-c1cc(NC(=O)c2cc(F)cc3[nH]ncc23)cc2c1CNC2 | 2.77 µM
O=C(Nc1ccc2c(c1)CNC2)c1cc(F)cc2[nH]c(-c3ccc(F)cc3)nc12 | 5.37 µM
O=C(O)CCCc1cc(NC(=O)c2cc(F)cc3[nH]ncc23)cc2c1CNC2 | 1.51 µM

Compound | IC50
CC(C)n1ncc2c(C(=O)Nc3ccc4c(c3)CNC4)cc(Cl)cc21 | 18.2 µM
O=C(Nc1ccc2c(c1)CNC2)c1cc(Cl)cc2nn(C3CCC3)cc12 | 14.7 µM
Cn1ccc(-c2cc(F)cc(C(=O)Nc3ccc4c(c3)CNC4)c2)cc1=O | 2.23 µM
Cc1cc(-c2cc(F)cc(C(=O)Nc3ccc4c(c3)CNC4)c2)[nH]n1 | 3.74 µM
O=C(Nc1ccc2c(c1)CNC2)c1cc(Cl)cc2c1cnn2C1CCOCC1 | 1.45 µM
Cn1cc2c(C(=O)Nc3ccc4c(c3)CNC4)cc(Cl)cc2n1 | 15.1 µM
O=C(Nc1ccc2c(c1)CNC2)c1cc(F)cc(C2=CCOCC2)c1 | 9.32 µM
C=CC[C@H]1NCc2cc(N[C@H](C(=O)NCC(F)F)c3cc(Cl)cc(C4CC4)c3)ccc21 | 0.289 µM
O=C(Nc1ccc2c(c1)CNC2)c1cc(F)cc2[nH]c(-c3ccc(F)cc3O)nc12 | 24.1 µM
COc1cc(-c2cc(NC(=O)c3cc(F)cc4[nH]ncc34)cc3c2CNC3)ccn1 | 0.801 µM
CS(=O)(=O)N1CC[C@]2(C1)C(=O)Nc1cccc(C(=O)Nc3ccc4c(c3)CNC4)c12 | 6.28 µM
CSCCCNC(=O)[C@H](Nc1ccc2c(c1)CNC2)c1cc(Cl)cc(C2CC2)c1 | 0.573 µM
CC(C)(c1nc2c(C(=O)Nc3ccc4c(c3)CNC4)cc(F)cc2[nH]1)S(C)(=O)=O | 9.71 µM
CC(C)n1cc2c(C(=O)Nc3ccc4c(c3)CNC4)cc(Cl)cc2n1 | 1.73 µM
COCCCNC(=O)[C@H](Nc1ccc2c(c1)CNC2)c1cc(Cl)cc(C2CC2)c1 | 0.583 µM
NCCc1csc2cc(C(=O)Nc3ccc4c(c3)CNC4)ccc12 | 2.09 µM
O=C(Nc1ccc2c(c1)CN[C@H]2C[C@H](O)CO)c1cc(Cl)cc2[nH]ncc12 | 5.56 µM
O=C(Nc1ccc2c(c1)CNC2)c1cc(F)c2[nH]c(=O)[nH]c2c1 | 18 µM
C=C[C@H]1NCc2cc(NC(=O)c3cc(F)cc4[nH]ncc34)ccc21 | 3.07 µM
CCCn1ncc2c(C(=O)Nc3ccc4c(c3)CNC4)cc(Cl)cc21 | 12.5 µM
O=C(Nc1cc2c(c(C3=CCS(=O)(=O)CC3)c1)CNC2)c1cc(F)cc2[nH]ncc12 | 0.892 µM
O=C(Nc1cc2c(c(-c3ccnnc3)c1)CNC2)c1cc(Cl)cc2[nH]ncc12 | 3.06 µM
O=C(Nc1ccc2c(c1)CNC2)c1cc(Cl)cc2c1cnn2C1CCC1 | 1.7 µM
O=C(Nc1ccc2c(c1)CNC2)c1cc(F)cc(-c2ccncc2)c1 | 3.65 µM
O=C(Nc1cc2c(c(C3=CCOCC3)c1)CNC2)c1cc(F)cc2[nH]ncc12 | 0.627 µM
